Earlier results as cited in US20200368246A1, “COMBINATION THERAPY TARGETING CANCER ASSOCIATED WITH THE HEDGEHOG PATHWAY” (priority 2017, published 2020).
Where two headings read alike, the source gives them in different places.

Tests used:
[1] = tested on: advanced and metastatic basal cell carcinoma; conditions: monotherapy
[2] = for patients who experience treatment-emergent adverse events: monotherapy at recommended dose; for patients who experienced adverse side effects: muscle spasms, alopecia, taste loss, weight loss, fatigue
basal cell carcinoma = conditions: patient
[3] = nineteen patients; grade 2 fatigue and grade 4 congestive heart failure
[4] = metastatic basal cell carcinoma

| Compound | mean time for secondary resistance [1] | treated patients with secondary resistance [1] [%] | response rate ([1]; advanced basal cell carcinoma) [%] | response rate [1, 4] [%] | patients who experience treatment-emergent adverse events [2] | patients with severe grade 3 or 4 adverse reactions ([2]; monotherapy trial) [%] | patients who experienced adverse side effects ([2]; monotherapy trial) [%] | tumor shrinkage (basal cell carcinoma; clinical trial, within the first several months) [%] | tumor outcome on second course (basal cell carcinoma; placed back on the drug after radiation) | effectiveness (basal cell carcinoma; 3 cycles) | adverse events associated with treatment [3] | patients who had to discontinue treatment due to toxic effects ([2]; monotherapy trial) [%] |
| --- | --- | --- | --- | --- | --- | --- | --- | --- | --- | --- | --- | --- |
| CS(=O)(=O)c1ccc(C(=O)Nc2ccc(Cl)c(-c3ccccn3)c2)c(Cl)c1 [Erivedge®, vismodegib] | about 52 weeks | 21 | 43 | 30 | Ninety-five to one hundred percent | 25 | 33 | 70 | the tumor developed resistance to the drug | – | – | – |
| pembrolizumab [Keytruda] | – | – | – | – | – | – | – | – | – | failed to show effectiveness | – | – |
| CCC(C)n1ncn(-c2ccc(N3CCN(c4ccc(OCC5COC(Cn6cncn6)(c6ccc(Cl)cc6Cl)O5)cc4)CC3)cc2)c1=O (stereo not drawn) [itraconazole] | – | – | – | – | – | – | – | – | – | – | two adverse events | – |
| Cc1c(C(=O)Nc2ccc(N3C[C@@H](C)O[C@@H](C)C3)nc2)cccc1-c1ccc(OC(F)(F)F)cc1 [Odomzo®, sonidegib] | about 52 weeks | 21 | 47 | 17.4 | Ninety-five to one hundred percent | – | 32 | – | – | – | – | 22 |
